Results: publication PMC12155096 (International Journal of Molecular Sciences, 2025)

These compounds were tested against human CYP2D6 (Homo sapiens, UniProt P10635) (assay: not given). Conditions: not given.
Chain of human CYP2D6 (P10635 whole entry): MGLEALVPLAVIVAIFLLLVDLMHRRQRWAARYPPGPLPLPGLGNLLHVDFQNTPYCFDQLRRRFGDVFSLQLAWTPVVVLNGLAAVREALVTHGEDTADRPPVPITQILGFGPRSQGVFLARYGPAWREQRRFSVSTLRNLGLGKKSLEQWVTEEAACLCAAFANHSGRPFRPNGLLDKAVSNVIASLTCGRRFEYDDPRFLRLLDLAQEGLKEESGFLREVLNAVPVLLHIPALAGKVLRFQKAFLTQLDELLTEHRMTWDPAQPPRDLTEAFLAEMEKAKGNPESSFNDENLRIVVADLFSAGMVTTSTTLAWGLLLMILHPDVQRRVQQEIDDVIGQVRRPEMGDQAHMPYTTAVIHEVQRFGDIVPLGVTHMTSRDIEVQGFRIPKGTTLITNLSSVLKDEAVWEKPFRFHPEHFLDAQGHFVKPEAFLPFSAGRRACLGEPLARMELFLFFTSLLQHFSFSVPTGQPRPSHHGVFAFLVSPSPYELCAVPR

SMILES | IC50 | CYP2D6 Efficacy (in parenthesis) | AC50 | CYP2D6 Efficacy
C[C@@H]1C[C@H]2[C@@H]3CCC4=CC(=O)C=C[C@]4(C)[C@@]3(F)[C@@H](O)C[C@]2(C)[C@@]1(O)C(=O)COC(=O)c1ccncc1 [Dexamethasone isonicotinate] | 9.5 µM |  |  | 
COS(=O)(=O)[O-].Cn1c(-c2ccccc2)cc(-c2ccccc2)[n+]1C [Difenzoquat metilsulfate] | 0.44 µM |  |  | 
C=CC(=O)OCC(CO)(COCC(COC(=O)C=C)(COC(=O)C=C)COC(=O)C=C)COC(=O)C=C [Dipentaerythritol pentaacrylate] | 26.7 µM | 26.69 ± 11.98 (-72 ± 6) % |  | 
CCc1ccc(C(=O)C(C)CN2CCCCC2)cc1.Cl (stereo not drawn) [Eperisone hydrochloride] | 0.51 µM |  |  | 
CCOC(CN1CCN(CC(C)C(=O)c2ccccc2)CC1)c1ccccc1.Cl.Cl (stereo not drawn) [Eprazinone dihydrochloride] | 0.2 µM |  | 0.2 µM | 
CCc1cc(Cl)c(OC)c(C(=O)NC[C@@H]2CCCN2CC)c1O.Cl [Eticlopride hydrochloride] |  |  |  | 0.67 ± 0.09 (-96 ± 1) %
Cc1[nH]cnc1C[C@H]1CCc2c(C)c3ccccc3n2C1=O.Cl [Fabesetron hydrochloride] |  |  |  | 3.52 ± 0.74 (-103 ± 4) %
O=S(=O)(Oc1ccc(Cl)cc1)c1ccccc1 [Fenson] | 35.7 µM |  | 35.7 µM | 35.73 ± 4.11 (-62 ± 14) %

Same assay, conditions: human

SMILES | CYP2D6 Efficacy (in parenthesis)
COP(=S)(OC)SCn1nnc2ccccc2c1=O [Azinphos-methyl] | 55.48 ± 13.48 (-75 ± 13) %

These compounds were tested against Photinus pyralis (firefly) luciferase (Photinus pyralis, UniProt P08659) (assay: biochemical). Conditions: not given.
Chain of Photinus pyralis (firefly) luciferase (P08659 whole entry): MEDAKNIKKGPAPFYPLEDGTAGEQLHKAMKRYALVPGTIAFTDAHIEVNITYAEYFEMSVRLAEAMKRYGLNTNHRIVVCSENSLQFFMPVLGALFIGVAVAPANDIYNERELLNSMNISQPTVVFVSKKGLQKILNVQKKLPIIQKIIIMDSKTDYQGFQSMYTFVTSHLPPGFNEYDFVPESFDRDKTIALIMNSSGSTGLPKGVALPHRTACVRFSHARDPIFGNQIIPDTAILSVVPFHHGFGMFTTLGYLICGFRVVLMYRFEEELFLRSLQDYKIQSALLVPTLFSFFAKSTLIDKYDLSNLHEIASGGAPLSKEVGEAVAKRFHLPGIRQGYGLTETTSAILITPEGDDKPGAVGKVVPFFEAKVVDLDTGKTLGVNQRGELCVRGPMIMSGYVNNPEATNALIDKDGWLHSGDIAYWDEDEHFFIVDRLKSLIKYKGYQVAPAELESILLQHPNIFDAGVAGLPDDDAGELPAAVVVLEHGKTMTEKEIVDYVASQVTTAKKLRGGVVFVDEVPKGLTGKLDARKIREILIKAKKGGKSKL
Format: biochemical

SMILES | Luciferase Efficacy (in parenthesis) | Luciferase IC50 (half-maximal inhibitory concentration) | Luciferase IC50
COP(=S)(OC)SCn1nnc2ccccc2c1=O [Azinphos-methyl] | 47.70 ± 13.48 (-40 ± 2) % |  | 
C[C@@H]1C[C@H]2[C@@H]3CCC4=CC(=O)C=C[C@]4(C)[C@@]3(F)[C@@H](O)C[C@]2(C)[C@@]1(O)C(=O)COC(=O)c1ccncc1 [Dexamethasone isonicotinate] |  | Inactive | 
COS(=O)(=O)[O-].Cn1c(-c2ccccc2)cc(-c2ccccc2)[n+]1C [Difenzoquat metilsulfate] |  |  | Inactive
C=CC(=O)OCC(CO)(COCC(COC(=O)C=C)(COC(=O)C=C)COC(=O)C=C)COC(=O)C=C [Dipentaerythritol pentaacrylate] |  | Inactive | 
CCc1ccc(C(=O)C(C)CN2CCCCC2)cc1.Cl (stereo not drawn) [Eperisone hydrochloride] |  | Inactive | 
CCOC(CN1CCN(CC(C)C(=O)c2ccccc2)CC1)c1ccccc1.Cl.Cl (stereo not drawn) [Eprazinone dihydrochloride] |  | Inactive | 
CCc1cc(Cl)c(OC)c(C(=O)NC[C@@H]2CCCN2CC)c1O.Cl [Eticlopride hydrochloride] |  | Inactive | 
Cc1[nH]cnc1C[C@H]1CCc2c(C)c3ccccc3n2C1=O.Cl [Fabesetron hydrochloride] |  | Inactive | 
O=S(=O)(Oc1ccc(Cl)cc1)c1ccccc1 [Fenson] | 76.75 ± 5.00 (-30 ± 10) % |  | 

Same assay, conditions: read-out: Luciferase IC50 (half-maximal inhibitory concentration)

SMILES | IC50
O=S(=O)(Oc1ccc(Cl)cc1)c1ccccc1 [Fenson] | 76.8 µM

The compounds below were run against human CYP2C19 (Homo sapiens, UniProt P33261) (assay: not given). Conditions: not given.
Chain of human CYP2C19 (P33261 whole entry): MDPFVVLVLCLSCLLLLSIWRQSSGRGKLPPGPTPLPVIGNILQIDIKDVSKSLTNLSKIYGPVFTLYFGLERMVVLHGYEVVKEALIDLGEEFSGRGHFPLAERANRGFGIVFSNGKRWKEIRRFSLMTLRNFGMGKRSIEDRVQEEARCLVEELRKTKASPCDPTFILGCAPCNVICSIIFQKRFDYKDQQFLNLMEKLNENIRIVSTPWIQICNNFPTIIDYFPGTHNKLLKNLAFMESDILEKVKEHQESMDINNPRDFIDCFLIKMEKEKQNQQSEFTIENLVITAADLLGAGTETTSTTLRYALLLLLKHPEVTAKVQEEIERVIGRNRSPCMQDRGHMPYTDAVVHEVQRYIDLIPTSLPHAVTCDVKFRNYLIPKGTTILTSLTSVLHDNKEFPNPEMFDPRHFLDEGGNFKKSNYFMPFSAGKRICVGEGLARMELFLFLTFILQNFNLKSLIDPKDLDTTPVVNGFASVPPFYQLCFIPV

SMILES | IC50 | CYP2C19 IC50 | CYP2C19 Efficacy (in parenthesis) | CYP2C19 IC50 (half-maximal inhibitory concentration) | CYP2C19 Efficacy
C[C@@H]1C[C@H]2[C@@H]3CCC4=CC(=O)C=C[C@]4(C)[C@@]3(F)[C@@H](O)C[C@]2(C)[C@@]1(O)C(=O)COC(=O)c1ccncc1 [Dexamethasone isonicotinate] | 23.4 µM |  |  |  | 
COS(=O)(=O)[O-].Cn1c(-c2ccccc2)cc(-c2ccccc2)[n+]1C [Difenzoquat metilsulfate] |  | Inactive |  |  | 
C=CC(=O)OCC(CO)(COCC(COC(=O)C=C)(COC(=O)C=C)COC(=O)C=C)COC(=O)C=C [Dipentaerythritol pentaacrylate] | 8.87 µM |  | 8.87 ± 1.02 (-135 ± 9) % |  | 
CCc1ccc(C(=O)C(C)CN2CCCCC2)cc1.Cl (stereo not drawn) [Eperisone hydrochloride] | 4.72 µM |  |  |  | 
CCOC(CN1CCN(CC(C)C(=O)c2ccccc2)CC1)c1ccccc1.Cl.Cl (stereo not drawn) [Eprazinone dihydrochloride] |  |  |  | Inactive | 
CCc1cc(Cl)c(OC)c(C(=O)NC[C@@H]2CCCN2CC)c1O.Cl [Eticlopride hydrochloride] |  |  |  | Inactive | 
Cc1[nH]cnc1C[C@H]1CCc2c(C)c3ccccc3n2C1=O.Cl [Fabesetron hydrochloride] | 1.67 µM |  |  |  | 
O=S(=O)(Oc1ccc(Cl)cc1)c1ccccc1 [Fenson] | 0.78 µM |  | 0.78 ± 0.29 (-135 ± 6) % |  | 0.78 ± 0.29 (-135 ± 6) %

Same assay, conditions: human

SMILES | CYP2C19 Efficacy (in parenthesis)
COP(=S)(OC)SCn1nnc2ccccc2c1=O [Azinphos-methyl] | 1.01 ± 0.12 (-134 ± 9) %

What follows are compounds tested against human CYP2C9 (Homo sapiens, UniProt P11712) (assay: not given). Conditions: not given.
Chain of human CYP2C9 (P11712 whole entry): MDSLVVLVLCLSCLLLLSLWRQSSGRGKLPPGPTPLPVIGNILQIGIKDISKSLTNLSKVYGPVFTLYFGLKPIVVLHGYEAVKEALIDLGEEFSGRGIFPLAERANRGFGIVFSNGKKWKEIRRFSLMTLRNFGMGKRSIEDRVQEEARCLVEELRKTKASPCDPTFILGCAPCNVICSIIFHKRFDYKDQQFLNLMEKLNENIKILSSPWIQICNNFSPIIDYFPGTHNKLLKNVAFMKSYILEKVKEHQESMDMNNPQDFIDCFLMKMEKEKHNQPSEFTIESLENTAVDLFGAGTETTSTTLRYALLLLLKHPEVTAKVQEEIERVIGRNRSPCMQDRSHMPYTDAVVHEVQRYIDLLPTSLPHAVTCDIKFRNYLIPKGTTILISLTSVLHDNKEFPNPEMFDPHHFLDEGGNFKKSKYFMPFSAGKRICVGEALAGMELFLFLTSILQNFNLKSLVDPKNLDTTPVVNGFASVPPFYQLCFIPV

SMILES | IC50 | CYP2C9 IC50 | CYP2C9 Efficacy (in parenthesis) | CYP2C9 IC50 (half-maximal inhibitory concentration) | AC50 | CYP2C9 Efficacy
C[C@@H]1C[C@H]2[C@@H]3CCC4=CC(=O)C=C[C@]4(C)[C@@]3(F)[C@@H](O)C[C@]2(C)[C@@]1(O)C(=O)COC(=O)c1ccncc1 [Dexamethasone isonicotinate] | 7.32 µM |  |  |  |  | 
COS(=O)(=O)[O-].Cn1c(-c2ccccc2)cc(-c2ccccc2)[n+]1C [Difenzoquat metilsulfate] |  | Inactive |  |  |  | 
C=CC(=O)OCC(CO)(COCC(COC(=O)C=C)(COC(=O)C=C)COC(=O)C=C)COC(=O)C=C [Dipentaerythritol pentaacrylate] | 7.3 µM |  | 7.3 ± 0.49 (-101 ± 2) % |  |  | 
CCc1ccc(C(=O)C(C)CN2CCCCC2)cc1.Cl (stereo not drawn) [Eperisone hydrochloride] |  |  |  | Inactive |  | 
CCOC(CN1CCN(CC(C)C(=O)c2ccccc2)CC1)c1ccccc1.Cl.Cl (stereo not drawn) [Eprazinone dihydrochloride] | 11.5 µM |  |  |  | 11.5 µM | 
CCc1cc(Cl)c(OC)c(C(=O)NC[C@@H]2CCCN2CC)c1O.Cl [Eticlopride hydrochloride] |  |  |  | Inactive |  | 
Cc1[nH]cnc1C[C@H]1CCc2c(C)c3ccccc3n2C1=O.Cl [Fabesetron hydrochloride] |  |  |  |  |  | 0.51 ± 0.09 (-90 ± 4) %
O=S(=O)(Oc1ccc(Cl)cc1)c1ccccc1 [Fenson] | 34.3 µM |  |  |  | 34.3 µM | 34.28 ± 2.23 (-89 ± 7) %

Same assay, conditions: human

SMILES | CYP2C9 Efficacy (in parenthesis)
COP(=S)(OC)SCn1nnc2ccccc2c1=O [Azinphos-methyl] | 3.88 ± 0.66 (-99 ± 12) %

What follows are compounds tested against T1, human CYP1A2 (Homo sapiens, UniProt P05177) (assay: not given). Conditions: not given.
T1 sequence (P05177 1-516): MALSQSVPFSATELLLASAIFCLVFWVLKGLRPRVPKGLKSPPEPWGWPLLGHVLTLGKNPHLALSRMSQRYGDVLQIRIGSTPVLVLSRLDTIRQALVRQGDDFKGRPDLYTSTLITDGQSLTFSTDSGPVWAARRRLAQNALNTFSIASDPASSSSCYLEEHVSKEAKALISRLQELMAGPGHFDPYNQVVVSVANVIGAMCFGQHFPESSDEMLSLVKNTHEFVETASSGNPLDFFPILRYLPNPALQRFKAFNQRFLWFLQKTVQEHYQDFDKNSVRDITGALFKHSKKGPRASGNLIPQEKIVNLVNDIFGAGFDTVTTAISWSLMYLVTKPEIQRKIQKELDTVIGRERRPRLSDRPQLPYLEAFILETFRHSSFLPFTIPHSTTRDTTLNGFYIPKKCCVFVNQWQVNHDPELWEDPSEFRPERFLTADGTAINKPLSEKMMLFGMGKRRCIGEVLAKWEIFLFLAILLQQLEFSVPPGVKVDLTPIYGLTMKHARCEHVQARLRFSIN

SMILES | CYP1A2 IC50 (half-maximal inhibitory concentration) | CYP1A2 IC50 | IC50 | CYP1A2 Efficacy | CYP1A2 Efficacy (in parenthesis)
C[C@@H]1C[C@H]2[C@@H]3CCC4=CC(=O)C=C[C@]4(C)[C@@]3(F)[C@@H](O)C[C@]2(C)[C@@]1(O)C(=O)COC(=O)c1ccncc1 [Dexamethasone isonicotinate] | Inactive |  |  |  | 
COS(=O)(=O)[O-].Cn1c(-c2ccccc2)cc(-c2ccccc2)[n+]1C [Difenzoquat metilsulfate] |  | Inactive |  |  | 
C=CC(=O)OCC(CO)(COCC(COC(=O)C=C)(COC(=O)C=C)COC(=O)C=C)COC(=O)C=C [Dipentaerythritol pentaacrylate] | Inactive |  |  |  | 
CCc1ccc(C(=O)C(C)CN2CCCCC2)cc1.Cl (stereo not drawn) [Eperisone hydrochloride] |  |  | 29.2 µM |  | 
CCOC(CN1CCN(CC(C)C(=O)c2ccccc2)CC1)c1ccccc1.Cl.Cl (stereo not drawn) [Eprazinone dihydrochloride] | Inactive |  |  |  | 
CCc1cc(Cl)c(OC)c(C(=O)NC[C@@H]2CCCN2CC)c1O.Cl [Eticlopride hydrochloride] |  |  | 13.5 µM |  | 
Cc1[nH]cnc1C[C@H]1CCc2c(C)c3ccccc3n2C1=O.Cl [Fabesetron hydrochloride] |  |  | 1.56 µM |  | 
O=S(=O)(Oc1ccc(Cl)cc1)c1ccccc1 [Fenson] |  |  | 5.64 µM | 5.64 ± 0.00 (-100 ± 5) % | 5.64 ± 0 (-100 ± 5) %

Same assay, conditions: human

SMILES | CYP1A2 Efficacy (in parenthesis)
COP(=S)(OC)SCn1nnc2ccccc2c1=O [Azinphos-methyl] | 28.26 ± 0 (-93 ± 8) %

These compounds were tested against CYP3A4 (Homo sapiens, UniProt P08684) (assay: not given). Conditions: not given.
Chain of CYP3A4 (P08684 whole entry): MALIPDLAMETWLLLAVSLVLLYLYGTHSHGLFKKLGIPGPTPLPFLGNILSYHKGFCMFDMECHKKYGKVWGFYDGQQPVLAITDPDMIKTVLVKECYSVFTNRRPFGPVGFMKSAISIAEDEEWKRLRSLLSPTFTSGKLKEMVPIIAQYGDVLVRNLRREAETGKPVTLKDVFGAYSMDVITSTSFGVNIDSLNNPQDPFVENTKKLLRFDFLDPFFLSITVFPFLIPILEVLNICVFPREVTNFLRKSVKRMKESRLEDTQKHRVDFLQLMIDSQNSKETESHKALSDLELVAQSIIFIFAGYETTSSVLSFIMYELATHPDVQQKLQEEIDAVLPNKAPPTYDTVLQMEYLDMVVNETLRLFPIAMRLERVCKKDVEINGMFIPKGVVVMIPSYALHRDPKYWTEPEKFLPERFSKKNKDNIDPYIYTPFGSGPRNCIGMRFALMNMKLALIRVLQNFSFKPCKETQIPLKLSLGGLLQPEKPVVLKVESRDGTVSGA

SMILES | CYP3A4 Efficacy (in parenthesis) | IC50 | CYP3A4 IC50 | CYP3A4 IC50 (half-maximal inhibitory concentration) | AC50
COP(=S)(OC)SCn1nnc2ccccc2c1=O [Azinphos-methyl] | 11.45 ± 2.62 (-87 ± 5) % |  |  |  | 
C[C@@H]1C[C@H]2[C@@H]3CCC4=CC(=O)C=C[C@]4(C)[C@@]3(F)[C@@H](O)C[C@]2(C)[C@@]1(O)C(=O)COC(=O)c1ccncc1 [Dexamethasone isonicotinate] |  | 0.81 µM |  |  | 
COS(=O)(=O)[O-].Cn1c(-c2ccccc2)cc(-c2ccccc2)[n+]1C [Difenzoquat metilsulfate] |  |  | Inactive |  | 
C=CC(=O)OCC(CO)(COCC(COC(=O)C=C)(COC(=O)C=C)COC(=O)C=C)COC(=O)C=C [Dipentaerythritol pentaacrylate] | 0.43 ± 0.03 (-94 ± 4) % | 0.43 µM |  |  | 
CCc1ccc(C(=O)C(C)CN2CCCCC2)cc1.Cl (stereo not drawn) [Eperisone hydrochloride] |  |  |  | Inactive | 
CCOC(CN1CCN(CC(C)C(=O)c2ccccc2)CC1)c1ccccc1.Cl.Cl (stereo not drawn) [Eprazinone dihydrochloride] |  |  |  | 15.16 ± 1.74 (64 ± 2) µM | 15.2 µM
CCc1cc(Cl)c(OC)c(C(=O)NC[C@@H]2CCCN2CC)c1O.Cl [Eticlopride hydrochloride] |  |  |  | Inactive | 
Cc1[nH]cnc1C[C@H]1CCc2c(C)c3ccccc3n2C1=O.Cl [Fabesetron hydrochloride] |  | 1.89 µM |  |  | 
O=S(=O)(Oc1ccc(Cl)cc1)c1ccccc1 [Fenson] | 6.61 ± 0.84 (131 ± 4) % |  |  | 6.61 ± 0.84 (131 ± 4) µM | 6.61 µM
